# In patent publication US9226950B2, “Method and composition for treating diabetes mellitus” (National Dong Hwa University, priority 2013, dated 2016):
# What was measured:
# AKT = test: Phosphorylation of AKT on Thr308 in L6 cells, Western blot; assay type: cell-based, rat; settings: FIG. 1(b)
# Experimental: (§1) […] muscle myoblast cells (L6) was a generous gift from Professor Hitoshi Ashida's Lab. (Kobe University, Kobe, Japan). The cells were grown and maintained in α-minimal essential medium (α-MEM, 12000022, GIBCO, CA, USA) containing 10% fetal bovine serum (FBS, GIBCO) and 1% penicillin streptomycin (GIBCO) in a cell culture incubator with 5% CO2 at 37° C. Prior to the following experiments, the cells were seeded and cultured at a density of 8×10^3 cells per well in 96-well plates or 2.5×10^5 cells per well in 6-well plates. After the myoblasts achieved 80% confluence, the cells were incubated for 5 days in the α-MEM supplemented with 2% FBS to induce differentiation to myotubes.
# The L6 cells were fully differentiated with α-MEM supplemented with 2% FBS for 5 days to myotubes. The cells were washed twice with PBS containing 0.1% BSA and subsequently incubated α-MEM containing 0.25% BSA with or without 100 nM of S961, and then treated with or without 100 μM of Tetracosanol for 90 min. Then, the cells were treated with or without 10 μM of insulin for 30 min. Finally, the cells were collected and washed twice in KRH buffer, then lysed in ice-cold RIPA buffer for 60 min. After centrifugation at 12,000×g for 30 min. at 4° C., the supernatant was kept at −80° C. until use. The levels of the proteins including phospho-AKT (Thr308), AKT, phospho-AMPK (Thr172), and AMPK (Cell Signaling) were detected and evaluated by Western blot with primary antibody.
# The cells after treatments were collected and washed twice in cold KRH buffer, and then lysed in ice-cold RIPA buffer incubation at 4° C. for 60 min. After centrifugation at 12,000×g for 30 min at 4° C., the supernatant was kept and quantified by Bradford protein assay (Bio-Rad, Hercules, Calif., USA). The proteins were separated using sodium dodecyl sulfate polyacrylamide gel electrophoresis (SDS-PAGE) and subsequently transferred to PVDF (Perkin Elmer Life Sciences, Boston, Mass., USA) membrane. […] The signals were monitored using Western Lightning™ Plus-ECL (Perkin Elmer Life Sciences) and the PVDF membrane was exposed to Luminescent image analyzer (LAS)-3000 (Fujifilm, Minato, Tokyo, Japan). Acquired data were analyzed and compared the difference among treatments.
# The differentiated L6 cells were incubated with 100 μM of tetracosanol (Tet) at 37° C. for 90 min, and then treated 10 μM of insulin (Ins) at 37° C. for 5 or 30 min. The cell lysates were separated by SDS-PAGE and blotted 5 min for phospho-Insr on Tyr1158, 1162, and 1163 (Insr, 100 kDa), and phospho-AKT on Thr308 protein level was measured at 30 min in Western blot analysis.
# L6 myotubes = test: Glucose uptake assay (2-deoxyglucose) in L6 myotubes; assay type: cell-based, rat; settings: FIG. 4
# Experimental: as §1
# The glucose uptake assay was followed the study disclosed in Yamamoto et al. (“An enzymatic fluorimetric assay to quantitate 2-deoxyglucose and 2-deoxyglucose-6-phosphate for in vitro and in vivo use.” Anal Biochem 404(2): 238-240, 2010) with minor modification and the technique generously assistant from Professor Hitoshi Ashida's Lab (Kobe University, Kobe, Japan). […] Uptake of 2DG into the cells was measured by the enzymatic fluorescence assay. The fluorescence assay buffer was composed of 50 mM TEA buffer, 0.1% BSA, 2.5 mM β-NADP (Wako Pure Chemical, Osaka, Japan), 0.05 unit Diaphorase (Wako), 150 unit/L. mesenteriodes G6PDH (sigma), and 0.5 mM Resazurin sodium salt (sigma). […]
smiles,measurement,setting,value
CCCCCCCCCCCCCCCCCCCCCCCCO [tetracosanol],phospho-AKT on Thr 308,"AKT; 100 μM tetracosanol (Tet) alone, 90 min",did not
same,phospho-AKT on Thr 308,AKT; insulin plus both S961 and tetracosanol (Ins+S961+Tet),induced the phospho-AKT on Thr 308
same,phospho-AKT on Thr 308,"AKT; insulin plus tetracosanol (Ins+Tet): 100 μM tetracosanol 90 min, then 10 μM insulin 30 min",induced the phospho-AKT on Thr 308
same,cell glucose uptake,L6 myotubes; 1 μM insulin plus 400 nM S961 and 10 μM tetracosanol (Ins+S961+Tet) versus Ins+Tet,synergistic effect
same,cell glucose uptake,L6 myotubes; 10 μM tetracosanol with 1 μM insulin (Ins+Tet),enhanced the cell glucose uptake
